Source: ChEMBL document CHEMBL1921680, “Synthesis and antileishmanial evaluation of 1-aryl-4-(4,5-dihydro-1H-imidazol-2-yl)-1H-pyrazole derivatives” (Bioorg Med Chem Lett, 2011)
pIC50: −log10 of the molar value. The source made the active and inactive calls. No cut-off for these calls is given here.

Legend:
Leishmania infantum = assay: Antileishmanial activity against extracellular promastigotes form of Leishmania infantum MCAN/BR/98R619 after 24 hrs by neubauer chamber analysis; format: functional, organism-based; conditions: MCAN/BR/98R619, 24 h
Leishmania braziliensis = assay: Antileishmanial activity against extracellular promastigotes form of Leishmania braziliensis MCAN/BR/97/P142 after 24 hrs by neubauer chamber analysis; format: functional, organism-based; conditions: MCAN/BR/97/P142, 24 h
Leishmania amazonensis [1] = assay: Antileishmanial activity against extracellular promastigotes form of Leishmania amazonensis MHOM/ BR/77/LTB0016 after 24 hrs by neubauer chamber analysis; format: functional, organism-based; conditions: MHOM/ BR/77/LTB0016, 24 h
[2] = Cytotoxicity against mouse peritoneal macrophages at IC50 for Leishmania amazonensis MHOM/ BR/77/LTB0016; format: cell-based; conditions: peritoneal macrophage cell
Leishmania amazonensis [3] = assay: Antileishmanial activity against Leishmania amazonensis MHOM/ BR/77/LTB0016 infected in CBA mouse assessed as development of cutaneous lesions at 50 mg/kg, po qd for 30 days administered 4 weeks post infection measured up to week 21; format: functional, organism-based; set-up: dose 50 mg/kg
Mus musculus [4] = assay: Toxicity in CBA mouse infected with Leishmania amazonensis MHOM/ BR/77/LTB0016 assessed as change in monocytes count at 50 mg/kg, po qd for 30 days administered 4 week post infection measured up to week 21; format: organism-based; set-up: dose 50 mg/kg, route oral; conditions: in vivo
Mus musculus [5] = assay: Toxicity in CBA mouse infected with Leishmania amazonensis MHOM/ BR/77/LTB0016 assessed as weight loss at 50 mg/kg, po qd for 30 days administered 4 week post infection measured up to week 21; format: organism-based; set-up: dose 50 mg/kg, route oral; conditions: in vivo
Mus musculus [6] = assay: Toxicity in CBA mouse infected with Leishmania amazonensis MHOM/ BR/77/LTB0016 assessed as change in leukocytes count at 50 mg/kg, po qd for 30 days administered 4 week post infection measured up to week 21; format: organism-based; set-up: dose 50 mg/kg, route oral; conditions: in vivo
Mus musculus [7] = assay: Toxicity in CBA mouse infected with Leishmania amazonensis MHOM/ BR/77/LTB0016 assessed as change in neutrophils count at 50 mg/kg, po qd for 30 days administered 4 week post infection measured up to week 21; format: organism-based; set-up: dose 50 mg/kg, route oral; conditions: in vivo
Mus musculus [8] = assay: Toxicity in CBA mouse infected with Leishmania amazonensis MHOM/ BR/77/LTB0016 assessed as weight loss at 29 to 100 umol/kg, po qd for 30 days administered 4 week post infection measured up to week 21; format: organism-based; conditions: in vivo
Mus musculus [9] = assay: Toxicity in CBA mouse infected with Leishmania amazonensis MHOM/ BR/77/LTB0016 assessed as change in monocytes count at 100 umol/kg, po qd for 30 days administered 4 week post infection measured up to week 21; format: organism-based; conditions: in vivo
Leishmania amazonensis [10] = assay: Antileishmanial activity against Leishmania amazonensis MHOM/ BR/77/LTB0016 infected in CBA mouse assessed as development of cutaneous lesions at 100 umol/kg, po qd for 30 days administered 4 weeks post infection measured up to week 21; format: functional, organism-based
Mus musculus [11] = assay: Hepatotoxicity in CBA mouse infected with promastigotes form of Leishmania amazonensis MHOM/ BR/77/LTB0016 assessed as change in AST level at 100 umol/kg, po qd for 30 days administered 4 week post infection measured up to week 21; format: toxicity, organism-based; conditions: in vivo
Mus musculus [12] = assay: Renal toxicity in CBA mouse infected with promastigotes form of Leishmania amazonensis MHOM/ BR/77/LTB0016 assessed as change in creatinine level at 100 umol/kg, po qd for 30 days administered 4 week post infection measured up to week 21; format: organism-based; conditions: in vivo
Mus musculus [13] = assay: Toxicity in CBA mouse infected with Leishmania amazonensis MHOM/ BR/77/LTB0016 assessed as change in neutrophils count at 100 umol/kg, po qd for 30 days administered 4 week post infection measured up to week 21; format: organism-based; conditions: in vivo
Mus musculus [14] = assay: Hepatotoxicity in CBA mouse infected with promastigotes form of Leishmania amazonensis MHOM/ BR/77/LTB0016 assessed as change in ALT level at 100 umol/kg, po qd for 30 days administered 4 week post infection measured up to week 21; format: toxicity, organism-based; conditions: in vivo
Mus musculus [15] = assay: Toxicity in CBA mouse infected with Leishmania amazonensis MHOM/ BR/77/LTB0016 assessed as change in leukocytes count at 100 umol/kg, po qd for 30 days administered 4 week post infection measured up to week 21; format: organism-based; conditions: in vivo

Nc1c(C2=NCCN2)cnn1-c1ccc(Br)cc1
pIC50 (Leishmania infantum): < 3.30
pIC50 (Leishmania braziliensis): 3.57
pIC50 (Leishmania amazonensis [1]): < 3.30

Nc1c(C2=NCCN2)cnn1-c1cccc(F)c1
pIC50 (Leishmania infantum): < 3.30
pIC50 (Leishmania braziliensis): < 3.30
pIC50 (Leishmania amazonensis [1]): < 3.30

Fc1cccc(-n2cc(C3=NCCN3)cn2)c1
pIC50 (Leishmania infantum): < 3.30
pIC50 (Leishmania amazonensis [1]): 4.27

Brc1cccc(-n2cc(C3=NCCN3)cn2)c1
Activity [2]: 11.98%
pIC50 (Leishmania infantum): < 3.30
pIC50 (Leishmania amazonensis [1]): < 3.30

Nc1c(C2=NCCN2)cnn1-c1cccc(Cl)c1
Activity [2]: 15.2%
pIC50 (Leishmania infantum): < 3.30
pIC50 (Leishmania braziliensis): < 3.30
pIC50 (Leishmania amazonensis [1]): < 3.30

CC(=O)N1CCN(c2ccc(OCC3COC(Cn4ccnc4)(c4ccc(Cl)cc4Cl)O3)cc2)CC1 (centres undefined) [KETOCONAZOLE]
Activity (Leishmania amazonensis [3]): Active
Activity (Mus musculus [4]): Non-toxic
Activity (Mus musculus [5]): Non-toxic
Activity (Mus musculus [6]): Non-toxic
Activity (Mus musculus [7]): Non-toxic

Nc1c(C2=NCCN2)cnn1-c1cc(Cl)cc(Cl)c1
Activity (Mus musculus [8]): Non-toxic
Activity (Mus musculus [9]): Non-toxic
pIC50 (Leishmania infantum): < 3.30
Activity (Leishmania amazonensis [10]): Active
Activity (Mus musculus [11]): Non-toxic
pIC50 (Leishmania braziliensis): 3.36
Activity (Mus musculus [12]): Non-toxic
Activity (Mus musculus [13]): Non-toxic
pIC50 (Leishmania amazonensis [1]): 4.81
Activity (Mus musculus [14]): Non-toxic
Activity (Mus musculus [15]): Non-toxic

Clc1ccc(-n2cc(C3=NCCN3)cn2)cc1Cl
Activity [2]: 5.32%
pIC50 (Leishmania infantum): < 3.30
pIC50 (Leishmania amazonensis [1]): 3.53

N=C(N)c1ccc(OCCCCCOc2ccc(C(=N)N)cc2)cc1 [PENTAMIDINE]
Activity [2]: 31%
pIC50 (Leishmania infantum): 4.00
pIC50 (Leishmania braziliensis): 4.30
pIC50 (Leishmania amazonensis [1]): 5.00

Clc1cc(Cl)cc(-n2cc(C3=NCCN3)cn2)c1
Activity [2]: 3.97%
pIC50 (Leishmania infantum): < 3.30
pIC50 (Leishmania braziliensis): 3.34
pIC50 (Leishmania amazonensis [1]): < 3.30

Clc1cccc(-n2cc(C3=NCCN3)cn2)c1
Activity [2]: 6.46%
pIC50 (Leishmania infantum): < 3.30
pIC50 (Leishmania braziliensis): < 3.30
pIC50 (Leishmania amazonensis [1]): 4.22

Brc1ccc(-n2cc(C3=NCCN3)cn2)cc1
Activity [2]: 3.52%
pIC50 (Leishmania infantum): < 3.30
pIC50 (Leishmania amazonensis [1]): 4.52

Nc1c(C2=NCCN2)cnn1-c1cccc(Br)c1
pIC50 (Leishmania amazonensis [1]): 4.50

Nc1c(C2=NCCN2)cnn1-c1ccccc1
pIC50 (Leishmania infantum): < 3.30
pIC50 (Leishmania braziliensis): 3.36
pIC50 (Leishmania amazonensis [1]): 3.44

Nc1c(C2=NCCN2)cnn1-c1ccc(Cl)c(Cl)c1
Activity [2]: 15.5%
pIC50 (Leishmania amazonensis [1]): 3.42

c1ccc(-n2cc(C3=NCCN3)cn2)cc1
Activity [2]: 11.26%
pIC50 (Leishmania infantum): < 3.30
pIC50 (Leishmania braziliensis): < 3.30
pIC50 (Leishmania amazonensis [1]): 4.37
